Assay results as given in PubChem BioAssay AID192 (DTP/NCI, 2004).
Several values for one entry are separate records, joined by “and”; a condition that tells them apart may be missing. Equal values may be shown once. Toxic doses and inconclusive results are not listed.

Tested on: BDF1 mice, B16 melanoma ip, median survival T/C
Assay: NCI In Vivo Anticancer Drug Screen. Data for tumor model B16 Melanoma (intraperitoneal) in B6D2F1 (BDF1) mice
Details: endpoint: median survival time, higher = longer survival
How it was run: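 Antitumor activity is assessed in mice bearing a transplanted tumor, with survival or tumor size compared against vehicle-dosed controls and expressed as T/C.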

[1] = dose: 12.5 mg/kg/injection, schedule: Q01DX009 (ip), vehicle: saline
[2] = dose: 25.0 mg/kg/injection, schedule: Q01DX009 (ip), vehicle: saline
[3] = dose: 50.0 mg/kg/injection, schedule: Q01DX009 (ip), vehicle: saline
[4] = dose: 100.0 mg/kg/injection, schedule: Q01DX009 (ip), vehicle: saline
[5] = dose: 200.0 mg/kg/injection, schedule: Q01DX009 (ip), vehicle: saline
[6] = dose: 12.5 mg/kg/injection, schedule: Q01DX009 (ip), vehicle: Klucel (hydroxypropylcellulose) (HPC)
[7] = dose: 25.0 mg/kg/injection, schedule: Q01DX009 (ip), vehicle: Klucel (hydroxypropylcellulose) (HPC)
[8] = dose: 50.0 mg/kg/injection, schedule: Q01DX009 (ip), vehicle: Klucel (hydroxypropylcellulose) (HPC)
[9] = dose: 12.5 mg/kg/injection, schedule: Q01DX009 (ip), vehicle: saline with Tween-80
[10] = dose: 25.0 mg/kg/injection, schedule: Q01DX009 (ip), vehicle: saline with Tween-80
[11] = dose: 50.0 mg/kg/injection, schedule: Q01DX009 (ip), vehicle: saline with Tween-80
[12] = dose: 200.0 mg/kg/injection, schedule: Q01DX009 (ip), vehicle: saline with Tween-80
[13] = dose: 6.25 mg/kg/injection, schedule: Q01DX009 (ip), vehicle: Klucel (hydroxypropylcellulose) (HPC)
[14] = dose: 100.0 mg/kg/injection, schedule: Q01DX009 (ip), vehicle: Klucel (hydroxypropylcellulose) (HPC)
[15] = dose: 100.0 mg/kg/injection, schedule: Q01DX009 (ip), vehicle: saline with Tween-80
[16] = dose: 200.0 mg/kg/injection, schedule: Q01DX009 (ip), vehicle: Klucel (hydroxypropylcellulose) (HPC)
[17] = dose: 400.0 mg/kg/injection, schedule: Q01DX009 (ip), vehicle: Klucel (hydroxypropylcellulose) (HPC)
[18] = dose: 10.0 mg/kg/injection, schedule: Q01DX009 (ip), vehicle: Klucel (hydroxypropylcellulose) (HPC)

With NC1CONC1=O (stereo unspecified) the T/C (dose: 6.25 mg/kg/injection, schedule: Q01DX009 (ip), vehicle: saline) was 109 % of control, the T/C [1] was 88 % of control and the T/C [2] was 109 % of control. The T/C [3] was 102 % of control, the T/C [4] was 105 % of control and the T/C [5] was 100 % of control. The T/C (dose: 400.0 mg/kg/injection, schedule: Q01DX009 (ip), vehicle: saline) was 91 % of control.
With c1ccc([P+](C[P+](c2ccccc2)(c2ccccc2)c2ccccc2)(c2ccccc2)c2ccccc2)cc1 the T/C (dose: 0.75 mg/kg/injection, schedule: Q01DX009 (ip), vehicle: saline) was 87 % of control and the T/C (dose: 1.5 mg/kg/injection, schedule: Q01DX009 (ip), vehicle: saline) was 93 % of control.
Cn1c(=O)c2[nH]c(Cc3ccsc3)nc2n(C)c1=O was tested, and the T/C [6] was 104 % of control, the T/C [7] was 107 % of control and the T/C [8] was 96 % of control.
With C#C[C@]1(O)CC[C@H]2[C@@H]3CCc4cc(O)ccc4[C@H]3CC[C@@]21C the T/C (dose: 5.0 mg/kg/injection, schedule: Q02DX009 (ip), vehicle: Klucel (hydroxypropylcellulose) (HPC)) was 86 % of control, the T/C (dose: 10.0 mg/kg/injection, schedule: Q02DX009 (ip), vehicle: Klucel (hydroxypropylcellulose) (HPC)) was 97 % of control and the T/C (dose: 20.0 mg/kg/injection, schedule: Q02DX009 (ip), vehicle: Klucel (hydroxypropylcellulose) (HPC)) was 87 % of control. For the same molecule, the T/C (dose: 40.0 mg/kg/injection, schedule: Q02DX009 (ip), vehicle: Klucel (hydroxypropylcellulose) (HPC)) was 86 % of control and 96 % of control and the T/C (dose: 80.0 mg/kg/injection, schedule: Q02DX009 (ip), vehicle: Klucel (hydroxypropylcellulose) (HPC)) was 86 % of control.
In the case of CC1(C)COCN1COC1CCCCC1, the T/C [9] is reported as 100 % of control, the T/C [10] is reported as 105 % of control and 115 % of control and the T/C [11] is reported as 105 % of control and 119 % of control. For the same molecule, the T/C [12] was 110 % of control.
In the case of CS(=O)(=O)ON1C(=O)c2ccccc2C1=O, the T/C (dose: 1.56 mg/kg/injection, schedule: Q01DX009 (ip), vehicle: Klucel (hydroxypropylcellulose) (HPC)) is reported as 100 % of control, the T/C (dose: 3.12 mg/kg/injection, schedule: Q01DX009 (ip), vehicle: Klucel (hydroxypropylcellulose) (HPC)) is reported as 98 % of control and the T/C [13] is reported as 94 % of control.
For ClC(Cl)=C(Cl)Cl, the T/C [9] was 105 % of control, the T/C [10] was 98 % of control and the T/C [8] was 101 % of control. The T/C [11] was 93 % of control, the T/C [14] was 99 % of control and the T/C [15] was 92 % of control. For the same molecule, the T/C [16] was 98 % of control and the T/C [17] was 88 % of control.
For OC(CCl)CN1CC[N+]2(CC1)CC[N+]1(CCN(CC(O)CCl)CC1)CC2 (stereo unspecified), the T/C (dose: 4.0 mg/kg/injection, schedule: Q03HX024 (ip), vehicle: water) was 114 % of control, the T/C (dose: 8.0 mg/kg/injection, schedule: Q03HX016 (ip), vehicle: water) was 114 % of control and the T/C (dose: 8.0 mg/kg/injection, schedule: Q03HX024 (ip), vehicle: water) was 117 % of control. For the same molecule, the T/C [1] was 116 % of control, the T/C (dose: 16.0 mg/kg/injection, schedule: Q01DX009 (ip), vehicle: water) was 114 % of control and the T/C (dose: 16.0 mg/kg/injection, schedule: Q03HX008 (ip), vehicle: water) was 113 % of control. The T/C (dose: 16.0 mg/kg/injection, schedule: Q03HX016 (ip), vehicle: water) was 121 % of control, the T/C (dose: 16.0 mg/kg/injection, schedule: Q03HX024 (ip), vehicle: water) was 121 % of control and the T/C [2] was 111 % of control. For the same molecule, the T/C (dose: 32.0 mg/kg/injection, schedule: Q03HX008 (ip), vehicle: water) was 123 % of control, the T/C (dose: 44.0 mg/kg/injection, schedule: Q01DX009 (ip), vehicle: saline) was 116 % of control and the T/C (dose: 66.0 mg/kg/injection, schedule: Q01DX009 (ip), vehicle: water) was 151 % of control and 172 % of control. The T/C (dose: 100.0 mg/kg/injection, schedule: Q01DX009 (ip), vehicle: water) was 150 % of control.
With Nc1ccc(S(=O)(=O)CCCl)cc1 the T/C (dose: 12.5 mg/kg/injection, schedule: Q04DX003 (ip), vehicle: Klucel (hydroxypropylcellulose) (HPC)) was 100 % of control, the T/C (dose: 25.0 mg/kg/injection, schedule: Q04DX003 (ip), vehicle: Klucel (hydroxypropylcellulose) (HPC)) was 105 % of control and the T/C (dose: 200.0 mg/kg/injection, schedule: Q04DX003 (ip), vehicle: Klucel (hydroxypropylcellulose) (HPC)) was 99 % of control.
With COc1ccc(NC(=S)Nc2ccc(OC)cc2)cc1 the T/C [14] was 106 % of control, the T/C [16] was 96 % of control and the T/C [17] was 93 % of control.
For NC1=C(N2CC2)C(=O)C(N)=C(N2CC2)C1=O, the T/C (dose: 6.0 micrograms/kg/injection, schedule: Q01DX009 (ip), vehicle: saline) was 112 % of control, the T/C (dose: 12.5 micrograms/kg/injection, schedule: Q01DX009 (ip), vehicle: saline) was 112 % of control and the T/C (dose: 25.0 micrograms/kg/injection, schedule: Q01DX009 (ip), vehicle: saline) was 105 % of control. The T/C (dose: 50.0 micrograms/kg/injection, schedule: Q01DX009 (ip), vehicle: saline) was 120 % of control and the T/C (dose: 200.0 micrograms/kg/injection, schedule: Q01DX009 (ip), vehicle: saline) was 124 % of control.
Cc1ccc(Cl)cc1NC(=O)COc1ccc(Cl)cc1 was tested, and the T/C [10] was 92 % of control, the T/C [11] was 91 % of control and the T/C [15] was 88 % of control.
For CCC1CN1P(=O)(N(CC)CC)N1CC1CC (stereo unspecified), the T/C [11] was 113 % of control and the T/C [15] was 117 % of control.
For CC1OC(n2ccc(NC(=O)c3ccc(NC(=O)C(C)(N)CO)cc3)nc2=O)CC(O)C1OC1OC(C)C(N(C)C)C(O)C1O (stereo unspecified), the T/C (dose: 2.5 mg/kg/injection, schedule: Q01DX009 (ip), vehicle: Klucel (hydroxypropylcellulose) (HPC)) was 117 % of control, the T/C (dose: 5.0 mg/kg/injection, schedule: Q01DX009 (ip), vehicle: Klucel (hydroxypropylcellulose) (HPC)) was 102 % of control and the T/C [18] was 103 % of control.
With CC(C)NNC(=O)c1ccccc1N the T/C [6] was 100 % of control, the T/C [8] was 87 % of control and the T/C [14] was 95 % of control. The T/C [16] was 97 % of control.
In the case of Clc1ccc(C=Nc2ccc3c(c2)Cc2ccccc2-3)cc1, the T/C [14] is reported as 93 % of control, the T/C [16] is reported as 93 % of control and the T/C [17] is reported as 96 % of control.
With CNc1ncnc2c1cnn2C the T/C [18] was 97 % of control, the T/C (dose: 20.0 mg/kg/injection, schedule: Q01DX009 (ip), vehicle: Klucel (hydroxypropylcellulose) (HPC)) was 89 % of control and the T/C (dose: 40.0 mg/kg/injection, schedule: Q01DX009 (ip), vehicle: Klucel (hydroxypropylcellulose) (HPC)) was 89 % of control.
With CC1C2CC3C(OC(=O)C13)C2I (stereo unspecified) the T/C [15] was 107 % of control and the T/C [12] was 89 % of control.
C(C#CCN1CCOCC1)#CCN1CCOCC1 was tested, and the T/C [9] was 102 % of control and 103 % of control, the T/C [10] was 97 % of control and the T/C [11] was 93 % of control and 96 % of control. The T/C [15] was 90 % of control and 97 % of control (2×), the T/C [12] was 90 % of control and 97 % of control (2×) and the T/C (dose: 400.0 mg/kg/injection, schedule: Q01DX009 (ip), vehicle: saline with Tween-80) was 90 % of control and 97 % of control and 107 % of control.
For CC[N+]1(CC)CC[N+]2(CC1)CC[N+]1(CC[N+](CC)(CC)CC1)CC2, the T/C [3] was 94 % of control, the T/C [4] was 100 % of control and the T/C [5] was 94 % of control.
For O=c1c2cccc3cccc(c32)c2nc3ccccc3n12, the T/C (dose: 2.5 mg/kg/injection, schedule: Q01DX009 (ip), vehicle: saline with Tween-80) was 102 % of control and the T/C (dose: 5.0 mg/kg/injection, schedule: Q01DX009 (ip), vehicle: saline with Tween-80) was 114 % of control.
For CCOC(=O)c1[nH]c(C#N)c(C(=O)OCC)c1C, the T/C [10] was 95 % of control, the T/C [11] was 95 % of control and the T/C [15] was 88 % of control.
In the case of CC(C)c1ccc(NC(=O)Nc2cc(Cl)ccc2Cl)cc1, the T/C (dose: 4.0 mg/kg/injection, schedule: Q01DX009 (ip), vehicle: gum acacia) is reported as 93 % of control, the T/C (dose: 8.0 mg/kg/injection, schedule: Q01DX009 (ip), vehicle: gum acacia) is reported as 90 % of control and the T/C (dose: 16.0 mg/kg/injection, schedule: Q01DX009 (ip), vehicle: gum acacia) is reported as 93 % of control.
CC(CCc1ccccc1)NC(C)C(O)c1ccc(O)cc1 (stereo unspecified) was tested, and the T/C [13] was 93 % of control, the T/C [6] was 105 % of control and the T/C [7] was 94 % of control. For the same molecule, the T/C [8] was 105 % of control and the T/C [14] was 115 % of control.
In the case of O=C1NC(c2c(Cl)cccc2Cl)Nc2ccccc21 (stereo unspecified), the T/C [14] is reported as 96 % of control, the T/C [16] is reported as 103 % of control and the T/C [17] is reported as 90 % of control.
